Tested on: HOP-62 multicell spheroids with HUVEC/MSC, viability
Assay: Anticancer human tumor HOP-62 cell line growth inhibition [KRAS2];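 further: viability read after a week of compound exposure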;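 on viability, T/C: 100% = DMSO vehicle-treated spheroids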
Conditions: for IC50: curve of first compound; for viability, T/C: stronger effect = lower value
How it was run: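 Combination screen of spheroid viability in tumor-cell co-cultures with endothelial (HUVEC) and mesenchymal stem cell stroma. Each agent was tested in half-log dilutions, topping at clinical Cmax or at 10 microM without a known Cmax.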

[1] = second compound 0.1 µM, first compound 0.00316 µM
[2] = second compound 0.1 µM, first compound 0.01 µM
[3] = second compound 0.1 µM, first compound 0.0316 µM
[4] = second compound 0.1 µM, first compound 0.1 µM
[5] = second compound 0.1 µM, first compound 0.316 µM
[6] = second compound 0.1 µM, first compound 1 µM
[7] = second compound 0.316 µM, first compound 0.00316 µM
[8] = second compound 0.316 µM, first compound 0.01 µM
[9] = second compound 0.316 µM, first compound 0.0316 µM
[10] = second compound 0.316 µM, first compound 0.1 µM
[11] = second compound 0.316 µM, first compound 0.316 µM
[12] = second compound 0.316 µM, first compound 1 µM
[13] = second compound 1 µM, first compound 0.00316 µM
[14] = second compound 1 µM, first compound 0.01 µM
[15] = second compound 1 µM, first compound 0.0316 µM
[16] = second compound 1 µM, first compound 0.1 µM
[17] = second compound 1 µM, first compound 0.316 µM
[18] = second compound 1 µM, first compound 1 µM
[19] = second compound 3.16 µM, first compound 0.00316 µM
[20] = second compound 3.16 µM, first compound 0.01 µM
[21] = second compound 3.16 µM, first compound 0.0316 µM
[22] = second compound 3.16 µM, first compound 0.1 µM
[23] = second compound 3.16 µM, first compound 0.316 µM
[24] = second compound 3.16 µM, first compound 1 µM
[25] = second compound 10 µM, first compound 0.00316 µM
[26] = second compound 10 µM, first compound 0.01 µM
[27] = second compound 10 µM, first compound 0.0316 µM
[28] = second compound 10 µM, first compound 0.1 µM
[29] = second compound 10 µM, first compound 0.316 µM
[30] = second compound 10 µM, first compound 1 µM

Row | Structure (SMILES) | IC50 (second compound 0.1 µM) | IC50 (second compound 0.316 µM) | IC50 (second compound 1 µM) | IC50 (second compound 3.16 µM) | IC50 (second compound 10 µM) | viability, T/C [1] | viability, T/C [2] | viability, T/C [3] | viability, T/C [4] | viability, T/C [5] | viability, T/C [6] | viability, T/C [7] | viability, T/C [9] | viability, T/C [10] | viability, T/C [15] | viability, T/C [16] | viability, T/C [21] | viability, T/C [22] | viability, T/C [27] | viability, T/C [28] | other results
1 | CCN1CCN(Cc2ccc(Nc3ncc(F)c(-c4cc(F)c5nc(C)n(C(C)C)c5c4)n3)nc2)CC1 + CNCc1ccccc1-c1csc(C(C)Nc2nc(C)nc3cc(OC)c(OC)cc23)c1 | > 1000 nM | > 1000 nM | 257 nM | < 3.16 nM | < 3.16 nM | 102% | 112% | 95.3% | 90.4% | 72.6% | 54.4% | 108% | 81.3% | 71% | 72.9% | 52.6% | 0.14% | 0.21% | 0.1% | 0.11% | viability, T/C [8]: 90.4%; viability, T/C [11]: 71.7%; viability, T/C [12]: 48.4%; viability, T/C [13]: 97%; viability, T/C [14]: 73.6%; viability, T/C [17]: 51.4%; viability, T/C [18]: 41.4%; viability, T/C [19]: 0.39%; viability, T/C [20]: 0.5%; viability, T/C [23]: 0.17%; viability, T/C [24]: 0.16%; viability, T/C [25]: 0.1%; viability, T/C [26]: 0.1%; viability, T/C [29]: 0.1%; viability, T/C [30]: 0.16%
2 | COc1cc2nccc(Oc3ccc(NC(=O)C4(C(=O)Nc5ccc(F)cc5)CC4)cc3)c2cc1OC + CNCc1ccccc1-c1csc(C(C)Nc2nc(C)nc3cc(OC)c(OC)cc23)c1 | 5360 nM | 4800 nM | 3670 nM | < 31.6 nM | < 31.6 nM |  |  | 92.4% | 94.1% | 102% | 96.3% |  | 90.6% | 82.8% | 74.7% | 79.2% | 0.34% | 0.17% | 0.12% | 0.14% | viability, T/C (second compound 0.1 µM, first compound 3.16 µM): 76%; viability, T/C (second compound 0.1 µM, first compound 10 µM): 19.3%; viability, T/C [11]: 81.7%; viability, T/C [12]: 86.9%; viability, T/C (second compound 0.316 µM, first compound 3.16 µM): 69.8%; viability, T/C (second compound 0.316 µM, first compound 10 µM): 15.2%; viability, T/C [17]: 85.6%; viability, T/C [18]: 80.7%; viability, T/C (second compound 1 µM, first compound 3.16 µM): 57.5%; viability, T/C (second compound 1 µM, first compound 10 µM): 0.44%; viability, T/C [23]: 0.13%; viability, T/C [24]: 0.15%; viability, T/C (second compound 3.16 µM, first compound 3.16 µM): 0.22%; viability, T/C (second compound 3.16 µM, first compound 10 µM): 0.14%; viability, T/C [29]: 0.12%; viability, T/C [30]: 0.11%; viability, T/C (second compound 10 µM, first compound 3.16 µM): 0.12%; viability, T/C (second compound 10 µM, first compound 10 µM): 0.19%
3 | Cn1ncnc1[C@H]1c2n[nH]c(=O)c3cc(F)cc(c23)N[C@@H]1c1ccc(F)cc1 + CNCc1ccccc1-c1csc(C(C)Nc2nc(C)nc3cc(OC)c(OC)cc23)c1 | > 100 nM | > 100 nM | > 100 nM | < 0.316 nM | < 0.316 nM | 91.8% | 97.1% | 86.5% | 71% |  |  | 89.4% | 79.3% | 74.9% | 68.9% | 53.7% | 2.25% | 5.87% | 0.68% | 0.19% | viability, T/C (second compound 0.1 µM, first compound 0.000316 µM): 98.2%; viability, T/C (second compound 0.1 µM, first compound 0.001 µM): 92.1%; viability, T/C (second compound 0.316 µM, first compound 0.000316 µM): 101%; viability, T/C (second compound 0.316 µM, first compound 0.001 µM): 93.9%; viability, T/C [8]: 83.7%; viability, T/C (second compound 1 µM, first compound 0.000316 µM): 69.2%; viability, T/C (second compound 1 µM, first compound 0.001 µM): 73%; viability, T/C [13]: 81.2%; viability, T/C [14]: 78.1%; viability, T/C (second compound 3.16 µM, first compound 0.000316 µM): 0.2%; viability, T/C (second compound 3.16 µM, first compound 0.001 µM): 0.14%; viability, T/C [19]: 0.99%; viability, T/C [20]: 0.21%; viability, T/C (second compound 10 µM, first compound 0.000316 µM): 0.12%; viability, T/C (second compound 10 µM, first compound 0.001 µM): 0.17%; viability, T/C [25]: 0.16%; viability, T/C [26]: 0.15%

Reference: PubChem BioAssay AID1963858 (Molecular Pharmacology Branch, DTP, NCI, 2024)
